Patent US8729055B2, “Ursolic acid derivative and pharmaceutical composition thereof” (Kaohsiung Medical University, priority 2010, dated 2014)

Tests used:
[1] = tested on: NTUB1 cells (human bladder cancer cell line); test: MTT cytotoxicity assay against NTUB1 cells; format: cell-based; conditions: for IC50 / % of viability at the highest concentration: NTUB1 cells; for IC50: MTT, mean±SD (n=5); for cytotoxic activity against NTUB1 cells, in words: comparison with the parent compound, from Table 1; for % of viability at the highest concentration: given when 50% inhibition not reached at the highest concentration (30 μM)
Description: In the present embodiment, cell culture and MTT assay is used for cell viability/proliferation. NTUB1, a human bladder cancer cell line, is established from a high-grade bladder cancer. […] The cells are cultured at 37° C. in a humidified atmosphere containing 5% CO2. […] Briefly, the cells are plated at a density of 1800 cells/well in 96-well plates and incubated at 37° C. overnight before drug exposure. Cells are then cultured in the presence of graded concentrations of the test compound with or without various concentrations of cisplatin (Pharmacia & Upjohn, Milan, Italy) at 37° C. for 72 h. At the end of the culture period, 50 μL of MTT (2 mg/mL in PBS) is added to each well and allowed to react for 3 h. Following centrifugation of plates at 1000 g for 10 min, media are removed and 150 μL DMSO are added to each well. The proportions of surviving cells are determined by absorbance spectrometry at 540 nm using […]) microplate reader. The cell viability is expressed as a percentage to the viable cells of control culture condition. The IC50s of each group are calculated by the […] analysis and presented as mean±standard deviation (SD). […] In Table 1, data are presented as mean±SD (n=5). […] The control cells are treated with culture medium containing 0.1% DMSO. Cisplatin is used as a positive control.

[2] = tested on: rat neutrophils stimulated with PMA; test: Experiment B: superoxide anion formation from rat neutrophils stimulated with PMA; format: cell-based; conditions: PMA (3 nM)
Description: This example illustrates the anti-inflammatory activities of compounds 5, 7-11, 20 and 21. The anti-inflammatory activities of compounds 5, 7-11, 20 and 21 are studied in vitro for their inhibitory effects on chemical mediators released from neutrophils, mast cells or macrophages of rat. […] In Table 2, when 50% inhibition could not be reached at the highest concentration, the percentage of inhibition at 30 μM is given. In the Experiment B, superoxide anion generation is measured in terms of superoxide dismutase-inhibitable cytochrome c reduction. Neutrophils isolated from the peripheral blood of the rats are washed and suspended in Hanks' balanced salt solution (HBSS). Neutrophil suspension is preincubated with DMSO or drugs, and then superoxide dismutase (SOD) or HBSS is added into the blank and test wells, respectively. The final volume of DMSO in the reaction mixture is ≦0.5%. After addition of cytochrome c, reaction is initiated by challenge with PMA (3 nM). Thirty minutes later, the reaction is terminated by centrifugation and the absorbance changes of supernatant are monitored at 550 nm in a microplate reader. The superoxide anion generation is measured in terms of superoxide dismutase-inhibitable cytochrome c reduction. Trifluoperazine is used as a positive control for the Experiment B.

accumulation of NO2− = test: Experiment A: accumulation of NO2− (Griess reaction); format: cell-based, rat; conditions: for percentage of inhibition at 30 μM, A NO2−: given when 50% inhibition not reached; for IC50: inhibition of accumulation of NO2−
Description: This example illustrates the anti-inflammatory activities of compounds 5, 7-11, 20 and 21. The anti-inflammatory activities of compounds 5, 7-11, 20 and 21 are studied in vitro for their inhibitory effects on chemical mediators released from neutrophils, mast cells or macrophages of rat.
Please refer to Table 2, which illustrates the inhibitory effects of compounds 5, 7-11, 20 and 21 on the accumulation of NO2^− (Experiment A), superoxide anion formation (n mol/10^6 cells/30 min) from rat neutrophils stimulated with PMA (Experiment B), and the release of β-glucuronidase from rat peritoneal mast cells stimulated with compound 48/80 (Experiment C). In Table 2, when 50% inhibition could not be reached at the highest concentration, the percentage of inhibition at 30 μM is given.
In the Experiment A, Nitric oxide (NO) in the cell medium is determined by the Griess reaction, and N-(3-aminomethyl)benzylamide (1400 W) is used as a positive control.

PC3 cells = test: MTT cytotoxicity assay against PC3 cells; format: cell-based, human; conditions: 72 h
From the text: (§1) The data shown in FIGS. 4(A) to 4(C) represent mean±SD (n=3) for one experiment performed in triplicate. The symbols, “*” represents p<0.05, “**” represents p<0.01, and “***” represents p<0.001, compared to the control value, respectively.

NTUB1 cells [3] = test: Cell cycle progression by FACS in propidium iodide-stained NTUB1 cells; format: cell-based, human
Description: These cells are harvested by trypsinization, washed with 1×PBS, and fixed in ice-cold MeOH at −20° C. After overnight incubation, the cells are washed with PBS and incubated with 50 μg/mL propidium iodide (Sigma, Co) and 50 μg/mL RNase A (Sigma, Co) in PBS at room temperature for 30 min. The fractions of cells in each phase of cell cycle are analyzed using FACScan flow cytometer and Cell Quest software (Becton Dickinson).

NTUB1 cells [4] = test: Intracellular ROS by DCFH-DA flow cytometry in NTUB1 cells; format: cell-based, human
Description: As to the quantitative analysis of intracellular ROS, the flow cytometry analysis is also adopted. Cells are plated and treated as above-mentioned conditions. Ten-micromolar dichlorofluorescein diacetate (DCFH-DA; Molecular Probes, Eugene, Oreg.) is added to the treated cells 30 min prior harvest. The cells are collected by trypsinization and washed with PBS. The green fluorescence of intracellular DCF (2′,7′-dichlorofluorescein) is then analyzed immediately by FACScan flow cytometer with a 525-nm band pass filter (Becton Dickinson).

A549 cells = test: MTT cytotoxicity assay against A549 cells; format: cell-based, human; conditions: 72 h
From the text: as §1

[5] = 50 μM, compared across the three cell lines

Compound: CC1CCC2(C(=O)O)CCC3(C)C(=CCC4C5(C)CCC(=O)C(C)(C)C5CCC43C)C2C1C (centres unmarked) [Compound 18]
- IC50 ([1]; 72 h): 21.4 ± 15.5 µM
- cytotoxic activity against NTUB1 cells, in words [1]: increases cytotoxicities

Compound: CC(C)=CCOC(=O)[C@]12CC[C@@H](C)[C@H](C)[C@H]1C1=CC[C@@H]3[C@@]4(C)CC[C@H](O)C(C)(C)[C@@H]4CC[C@@]3(C)[C@]1(C)CC2 [Compound 9, 3′-Methyl-2′-butenyl 3β-hydroxyurs-12-en-28-oate]
- IC50 ([1]; 72 h): 10.9 ± 2.01 µM
- IC50 [2]: 6.1 ± 1.9 µM
- percentage of inhibition at 30 μM, A NO2− (accumulation of NO2−): 45.2 ± 5.9%

Compound: C[C@H]1[C@H](C)CC[C@]2(C(=O)O)CC[C@]3(C)C(=CC[C@@H]4[C@@]5(C)CC[C@H](O)C(C)(C)[C@@H]5CC[C@]43C)[C@H]12 [Compound 1, ursolic acid]
- IC50 ([1]; Homo sapiens, 72 h): 29.4 ± 1.9 µM

Compound: CCCCCCOC(=O)[C@]12CC[C@@H](C)[C@H](C)[C@H]1C1=CC[C@@H]3[C@@]4(C)CC[C@H](O)C(C)(C)[C@@H]4CC[C@@]3(C)[C@]1(C)CC2 [Compound 8, Hexyl 3β-hydroxyurs-12-en-28-oate]
- IC50 ([1]; 72 h): 26.2 ± 2.51 µM
- IC50 [2]: 11.5 ± 0.9 µM

Compound: C[C@H]1[C@H](C)CC[C@]2(C(=O)OCC(=O)OC(C)(C)C)CC[C@]3(C)C(=CC[C@@H]4[C@@]5(C)CC[C@H](O)C(C)(C)[C@@H]5CC[C@]43C)[C@H]12 [Compound 11, Tert-Butoxycarbonylmethyl 3β-hydroxyurs-12-en-28-oate]
- IC50 ([1]; 72 h): > 30 µM
- % of viability at the highest concentration [1]: 64.85%
- IC50 (accumulation of NO2−): 21.7 ± 6.5 µM

Compound: CC(C)OC(=O)[C@]12CC[C@@H](C)[C@H](C)[C@H]1C1=CC[C@@H]3[C@@]4(C)CC[C@H](O)C(C)(C)[C@@H]4CC[C@@]3(C)[C@]1(C)CC2 [Compound 5, Isopropyl 3β-hydroxyurs-12-en-28-oate]
- cytotoxic effect at 50 μM, PC3 cells (PC3 cells; [5]): same cytotoxic effect
- cytotoxic effect against PC3 cells compared with NTUB1 cells (PC3 cells; MTT, FIG. 4): do not exhibit stronger cytotoxic effects
- effect on cell cycle progression (NTUB1 cells [3]; 20-40 μM, 48 h): arrests G2/M phase before accumulation of cells in sub-G1 phase
- effect on cell cycle progression (NTUB1 cells [3]; 20 and 40 μM (20-40 μM), 24 h): induces G1 phase arrest in a dose-dependent manner
- apoptotic cell death (NTUB1 cells [3]; 20 and 40 μM, 24 h): increase in the apoptotic cell death
- cytotoxic effect at 50 μM, NTUB1 cells ([1]; 50 μM, 72 h, compared across the three cell lines): same cytotoxic effect
- IC50 ([1]; 72 h): 7.97 ± 0.48 µM
- intracellular ROS (NTUB1 cells [4]; 40 μM, 24 h, effect inhibited by NAC): significant increase in intracellular ROS
- intracellular ROS (NTUB1 cells [4]; 20 and 40 μM, 48 h, effect not inhibited by NAC): significant increase in intracellular ROS
- cytotoxic effect at 50 μM, A549 cells (A549 cells; [5]): same cytotoxic effect
- cytotoxic effect against A549 cells compared with NTUB1 cells (A549 cells; MTT, FIG. 4): do not exhibit stronger cytotoxic effects
- percentage of inhibition at 30 μM, A NO2− (accumulation of NO2−): 45.3 ± 7.0%

Compound: COC(=O)[C@]12CC[C@@H](C)[C@H](C)[C@H]1C1=CC[C@@H]3[C@@]4(C)CC[C@H](O)C(C)(C)[C@@H]4CC[C@@]3(C)[C@]1(C)CC2 [Compound 2]
- IC50 ([1]; 72 h): 37.1 µM
- cytotoxic activity against NTUB1 cells, in words [1]: decreases the cytotoxic activity

Compound: CCCCCOC(=O)[C@]12CC[C@@H](C)[C@H](C)[C@H]1C1=CC[C@@H]3[C@@]4(C)CC[C@H](O)C(C)(C)[C@@H]4CC[C@@]3(C)[C@]1(C)CC2 [Compound 7, Pentyl 3β-hydroxyurs-12-en-28-oate]
- IC50 ([1]; 72 h): 27.8 ± 1.63 µM
- IC50 [2]: 10.8 ± 2.2 µM
- percentage of inhibition at 30 μM, A NO2− (accumulation of NO2−): 29.8 ± 3.3%

Compound: C[C@H]1[C@H](C)CC[C@]2(C(=O)O)CC[C@]3(C)C(=CC[C@@H]4[C@@]5(C)CCC(=O)OC(C)(C)[C@@H]5CC[C@]43C)[C@H]12 [Compound 20, 4-Hydroxy-3,4-seco-ursan-12-en-28-oic acid 3,4 lactone]
- IC50 ([1]; 72 h): > 30 µM
- % of viability at the highest concentration [1]: 63.91%
- cytotoxic activity against NTUB1 cells, in words [1]: weakens cytotoxic activities
- percentage of inhibition at 30 μM, A NO2− (accumulation of NO2−): 41.0 ± 9.6%

Compound: COC(=O)C12CCC(C)C(C)C1C1=CCC3C4(C)CCC(=O)C(C)(C)C4CCC3(C)C1(C)CC2 (centres unmarked) [Compound 19]
- IC50 ([1]; 72 h): 29.6 ± 4.65 µM

Compound: N.N.[Cl][Pt][Cl] [cisplatin, reference compound]
- effect on cell cycle progression (NTUB1 cells [3]; 10 μM, 48 h): S phase arrest
- effect on cell cycle progression (NTUB1 cells [3]; 10 and 20 μM, 24 h): dose dependent accumulation of cells in the G1 phase with a concomitant increase in the population of sub-G1 phase
- IC50 ([1]; 72 h): 3.27 ± 0.1 µM
- intracellular ROS (NTUB1 cells [4]; 10 μM, 24 h, effect inhibited by NAC): significant increase in intracellular ROS
- intracellular ROS (NTUB1 cells [4]; 10 μM, 48 h, effect not inhibited by NAC): significant increase in intracellular ROS

Compound: CCOC(=O)C12CCC(C)C(C)C1C1=CCC3C4(C)CCC(O)C(C)(C)C4CCC3(C)C1(C)CC2 (centres unmarked) [Compound 3]
- IC50 ([1]; 72 h): 13.5 µM

Compound: N-(3-aminomethyl)benzylamide [1400 W, reference compound]
- IC50 (accumulation of NO2−): 5 ± 1.5 µM

Compound: C[C@H]1[C@H](C)CC[C@]2(C(=O)OCCO)CC[C@]3(C)C(=CC[C@@H]4[C@@]5(C)CC[C@H](O)C(C)(C)[C@@H]5CC[C@]43C)[C@H]12 [Compound 10, 2′-Hydroxyethyl 3β-hydroxyurs-12-en-28-oate]
- IC50 ([1]; 72 h): 19.5 µM
- cytotoxic activity against NTUB1 cells, in words [1]: attenuate the cytotoxicity
- percentage of inhibition at 30 μM, A NO2− (accumulation of NO2−): 33.1 ± 7.2%

Compound: C[C@H]1[C@H](C)CC[C@]2(C(=O)O)CC[C@]3(C)C(=CC[C@@H]4[C@@](C)(CCC(=O)O)[C@H](C(C)(C)O)CC[C@]43C)[C@H]12 [Compound 22, 3,4-seco-Ursan-4-hydroxy-12-en-3,28-dioic acid]
- IC50 ([1]; 72 h): > 30 µM
- % of viability at the highest concentration [1]: 56.04%
- cytotoxic activity against NTUB1 cells, in words [1]: weakens cytotoxic activities

Compound: CN1CCN(CCCN2c3ccccc3Sc3ccc(C(F)(F)F)cc32)CC1 [trifluoperazine, reference compound]
- IC50 ([2]; Neutrophil): 7.3 ± 0.6 µM
